Source: patent US11578055B2, “Triazacyclododecansulfonamide (“TCD”)-based protein secretion inhibitors” (KEZAR LIFE SCIENCES, priority 2018, dated 2023)

How the values were obtained:
[1] = In Vitro Microsome Stability Assay (human); type: in vitro ADME; conditions: human liver microsomes, 30 min w/ NADPH
Summary of the method: (§1)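 The value reported is the percentage of parent left after 30 min, calculated from analyte/IS peak-area ratios relative to time zero by LC-MS/MS. Incubations ran at 37° C in 0.1 M potassium phosphate with NADPH and microsomes (stock 20 mg/mL), with compound added from a 0.25 mM DMSO stock. Acetonitrile containing IS stopped the reactions.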

[2] = test system: full length IL-2 (amino acids 1-153) fused to Gaussia Luciferase; test: Dox Induced IL2-FL-Gluc Assay; type: cell-based; conditions: 24 hr, Dox inducible, 293FRT/TO cells; read-out: 24 hr Dox Inducible IL2FLGluc 293FRT/TO: Mean IC50
Summary of the method: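 Flp-In 293 T-REx stable line expressing full-length IL-2 (aa 1-153) with C-terminal Gaussia luciferase fusion under doxycycline-inducible control. Cells plated the day before; compound dilutions added in DMSO/media containing doxycycline, incubated at 37° C, 5% CO2.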

[3] = In Vitro Microsome Stability Assay (monkey); type: in vitro ADME; conditions: monkey liver microsomes, 30 min w/ NADPH
Summary of the method: as §1

[4] = test system: multiple myeloma cell line U266B1; test: U266 Cell Viability Assay; type: cell-based, human; conditions: Homo sapiens, U-266; 48 hr, U266, Celltiter-Glo
Summary of the method: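 U266B1 myeloma cells in RPMI 1640 with 10% FBS were treated with compound dilutions for 48 h at 37° C, 5% CO2. Viability was read as CellTiter-Glo luminescence. Data for structures drawn without stereochemistry refer to stereoisomer mixtures.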

[5] = test system: full length TNFα (amino acids 1-233) fused to Gaussia Luciferase; test: Dox Induced TNFα-FL-Gluc Assay; type: cell-based; conditions: 24 hr, Dox inducible, 293FRT/TO cells; read-out: 24 hr Dox Inducible TNFaFLGluc 293FRT/TO: Mean IC50
Summary of the method: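 Stable Flp-In 293 T-REx line expressing doxycycline-inducible full-length TNFα fused to Gaussia luciferase; cells plated the day before, then treated with compound dilutions in doxycycline-containing medium at 37° C, 5% CO2. Unspecified stereocentres mean stereoisomer mixtures were tested.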

[6] = In Vitro Microsome Stability Assay (mouse); type: in vitro ADME; conditions: mouse liver microsomes, 30 min w/ NADPH
Summary of the method: as §1

[7] = test system: multiple myeloma cell line NCl-H929; test: H929 Cell Viability Assay; type: cell-based, human; conditions: Homo sapiens, NCI-H929, 48 h, H929, Celltiter-Glo
Summary of the method: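 NCI-H929 myeloma cells in RPMI 1640 with 10% FBS were treated with compound dilutions for 48 h at 37 °C, and viability was then read by CellTiter-Glo luminescence. Compounds drawn without stereochemistry were tested as stereoisomer mixtures.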

[8] = test system: HER3 signal sequence plus 4 amino acids fused to Gaussia Luciferase (HER3-ss+4aa/Gaussia Luciferase); test: Dox Induced HER3-ss-Gluc Assay; type: cell-based; conditions: 24 hr, doxycycline induced, Flp-In 293 T-REx cells; read-out: 24 hr Dox Inducible Her3(ss + 4) Gluc 293FRT/TO: Mean 1050
From the text: FIp-In 293 T-REx™ cells were transfected with pcDNA™5/FRT/TO plasmid inserted with cDNA encoding Gaussia Luciferase fused to the 3′ end of cDNA encoding HER3 signal sequence plus 4 amino acids (N-[…]-C) (SEQ ID NO: 2). Transfected cells were selected for resistance to the selectable markers Hygromycin and Blasticidin to create a stable cell line that contained the HER3-ss+4aa/Gaussia Luciferase cDNA insert whose expression was regulated under the T-REx™ system. The day before assay, cells were trypsinized and plated in 384-well tissue culture plates. The next day, compound dilutions in DMSO/media containing doxycycline were added to the wells and incubated at 37° C., 5% CO2.
For chemical structures that include one or more stereoisomers, but are illustrated without indicating stereochemistry, the assay data refers to a mixture of stereoisomers.

[9] = test system: PD1 signal sequence plus 10 amino acids fused to Gaussia Luciferase (PD1-ss+10aa/Gaussia Luciferase); test: Dox Induced PD1-ss-Gluc Assay; type: cell-based; conditions: 24 hr, Dox inducible, 293FRT/TO cells; read-out: 24 hr Dox Inducible PD1ssGluc 293FRT/TO: Mean IC50
Summary of the method: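 Stable Flp-In 293 T-REx line expressing the fusion under tetracycline-inducible control, plated the day before assay. Compound dilutions added with doxycycline and incubated at 37 °C, 5% CO2; unspecified stereocentres mean data refer to stereoisomer mixtures.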

[10] = In Vitro Microsome Stability Assay (rat); type: in vitro ADME; conditions: rat liver microsomes, 30 min w/ NADPH
Summary of the method: as §1

| Structure (SMILES) | Liver Microsome Stability-% Left after 30 min w/ NADPH (%) Human [1] [%] | IC50 [2] [µM] | Liver Microsome Stability-% Left after 30 min w/ NADPH (%) Monkey [3] [%] | EC50 [4] [µM] | IC50 [5] [µM] | Liver Microsome Stability-% Left after 30 min w/ NADPH (%) Mouse [6] [%] | EC50 [7] [µM] | IC50 [8] [µM] | IC50 [9] [µM] | Liver Microsome Stability-% Left after 30 min w/ NADPH (%) Rat [10] [%] |
| --- | --- | --- | --- | --- | --- | --- | --- | --- | --- | --- |
| C[C@H]1CN(S(=O)(=O)c2ccc(N(C)C)cc2)CCCN([C@H](C)C2CCCCC2)CCCN(S(=O)(=O)N2CCc3cc(Cl)ccc3C2)C1 [A191, 4-{[(3S)-5-[(6-chloro-1,2,3,4-tetrahydroisoquinolin-2-yl)sulfonyl]-9-[(1 R)-1-cyclohexylethyl]-3-methyl-1,5,9-triazacyclododecan-1-yl]sulfonyl}-N,N-dimethylaniline] | 48.6 | 0.145 | 68.3 | > 25 | 1.1 | 55.3 | 6.73 | 0.117 | 0.0576 | 65.0 |
| CC(=O)N(C)c1ccc(CNS(=O)(=O)N2CCCN(CC3CCCCC3)CCCN(S(=O)(=O)c3ccc(N(C)C)cc3)C[C@H](C)C2)cc1 [A192, N-{4-[({[(3S)-9-(cyclohexylmethyl)-5-[4-(dimethylamino)benzenesulfonyl]-3-methyl-1,5,9-triazacyclododecan-1-yl]sulfonyl}amino)methyl]phenyl}-N-methylacetamide] | 0.02 | 2.33 | 0.10 | > 25 | > 25 | 0.18 | 9.36 | 1.71 | 1.15 | 0.08 |
| COc1cc(F)cc(N2CCN(S(=O)(=O)N3CCCN(CC4CCCCC4)CCCN(S(=O)(=O)c4ccc(N(C)C)cc4)C[C@H](C)C3)C[C@@H]2C)c1 [A194] | 63.6 | 0.402 | 65.0 | > 25 | > 25 | 68.5 | > 25 | 0.303 | 0.261 | 59.2 |
| COc1cc(F)cc(N2[C@H](C)CN(S(=O)(=O)N3CCCN(CC4CCCCC4)CCCN(S(=O)(=O)c4ccc(N(C)C)cc4)C[C@H](C)C3)C[C@@H]2C)c1 [A197] | 70.7 | 0.0955 | 92.8 | > 25 | 0.666 | 65.4 | 4.13 | 0.0775 | 0.0343 | 76.6 |
| C[C@H]1CN(S(=O)(=O)c2ccc(N(C)C)cc2)CCCN(CC2CCCCC2)CCCN(S(=O)(=O)N2CCN(c3ccccc3Cl)CC2)C1 [A198, 4-{[(3S)-5-{[4-(2-chlorophenyl)piperazin-1-yl]sulfonyl}-9-(cyclohexylmethyl)-3-methyl-1,5,9-triazacyclododecan-1-yl]sulfonyl}-N,N-dimethylaniline] | 39.2 | 0.0533 | 65.1 | > 25 | 0.373 | 68.2 | 1.17 | 0.0441 | 0.0185 | 61.4 |
| COc1ccc(N2CCN(S(=O)(=O)N3CCCN(CC4CCCCC4)CCCN(S(=O)(=O)c4ccc(N(C)C)cc4)C[C@H](C)C3)CC2)cc1 [A199, 4-{[(3S)-9-(cyclohexylmethyl)-5-{[4-(4-methoxyphenyl)piperazin-1-yl]sulfonyl}-3-methyl-1,5,9-triazacyclododecan-1-yl]sulfonyl}-N,N-dimethylaniline] | 8.0 | 0.162 | 25.5 | > 25 | 1.42 | 23.7 | > 25 | 0.132 | 0.0808 | 28.3 |
| COc1cc(F)cc(N2[C@H](C)CN(S(=O)(=O)N3CCCN(CC4CCCCC4)CCCN(S(=O)(=O)c4ccc(N(C)C)cc4)C[C@H](C)C3)C[C@H]2C)c1 [A200] | 78.1 | 0.0279 | 73.9 | > 25 | 0.285 | 71.9 | 0.436 | 0.0291 | 0.0112 | 83.1 |

Other lines, results leading:

| Liver Microsome Stability-% Left after 30 min w/ NADPH (%) Human [1] [%] | IC50 [2] [µM] | Liver Microsome Stability-% Left after 30 min w/ NADPH (%) Monkey [3] [%] | EC50 [4] [µM] | IC50 [5] [µM] | Liver Microsome Stability-% Left after 30 min w/ NADPH (%) Mouse [6] [%] | EC50 [7] [µM] | IC50 [8] [µM] | IC50 [9] [µM] | Liver Microsome Stability-% Left after 30 min w/ NADPH (%) Rat [10] [%] | Structure (SMILES) |
| --- | --- | --- | --- | --- | --- | --- | --- | --- | --- | --- |
| 34.2 | 0.0818 | 7.72 | > 25 | 0.748 | 10.1 | 6.81 | 0.0508 | 0.0238 | 11.3 | COc1cc(F)ccc1N1CCN(S(=O)(=O)N2CCCN(CC3CCCCC3)CCCN(S(=O)(=O)c3ccc(N(C)C)cc3)CC3(CC3)C2)CC1 [A193] |
| 53.6 | 0.668 | 32.8 | > 25 | 11.2 | 58.5 | > 25 | 0.382 | 0.211 | 63.3 | COc1cc(F)cc(N2CCN(S(=O)(=O)N3CCCN(CC4CCCCC4)CCCN(S(=O)(=O)c4ccc(N(C)C)cc4)CC4(CC4)C3)C[C@H]2C)c1 [A195] |
| 32.8 | 0.283 | 26.5 | > 25 | 7.09 | 39.1 | > 25 | 0.211 | 0.118 | 35.4 | COc1cccc(N2CCN(S(=O)(=O)N3CCCN(CC4CCCCC4)CCCN(S(=O)(=O)c4ccc(N(C)C)cc4)C[C@H](C)C3)CC2)c1 [A201, 4-{[(3S)-9-(cyclohexylmethyl)-5-{[4-(3-methoxyphenyl)piperazin-1-yl]sulfonyl}-3-methyl-1,5,9-triazacyclododecan-1-yl]sulfonyl}-N,N-dimethylaniline] |
| 13.3 | 0.176 | 38.3 | > 25 | 2.05 | 55.0 | 2.91 | 0.13 | 0.0566 | 50.8 | COc1ccc(N2CCN(S(=O)(=O)N3CCCN(CC4CCCCC4)CCCN(S(=O)(=O)c4ccc(N(C)C)cc4)C[C@H](C)C3)CC2)cc1F [A202, 4-{[(3S)-9-(cyclohexylmethyl)-5-{[4-(3-fluoro-4-methoxyphenyl)piperazin-1-yl]sulfonyl}-3-methyl-1,5,9-triazacyclododecan-1-yl]sulfonyl}-N,N-dimethylaniline] |
